Measurements published in patent publication US7074761B1, “Peptides and production and use thereof” (Takeda Chemical Ind., Ltd., priority 1996, dated 2006).
Where a SMILES comes first, the peptide text is derived from it. Bridges are numbered along the chain shown (N, C = ends).

Experiments:
human SSTR2 = biological target: T1, human SSTR2 (Homo sapiens, UniProt P30874); assay: cAMP accumulation inhibiting activity in SSTR2 expressing CHO cells (forskolin stimulated); assay type: cell-based; details: forskolin 10 μM, CHO cells SSTR2-HS5-9; read-out: ED50, inhibition of intracellular cAMP accumulation, SSTR2
T1 construct: expressed in transfected cells; host or cells: CHO(dhfr-) cells, clone SSTR2-HS5-9, plasmid pAC01 (vector pAKKO-111)
Protocol: For measuring the intracellular accumulations of cyclic adenosine 3′,5′-monophosphate (cAMP), the human somatostatin receptor expressing cell lines SSTR2-HS5-9, SSTR3-15-19, SSTR4-1-2 and SSTR5-32-4 respectively described in Reference Example 2 (3), Reference Example 3 (3), Reference Example 4 (3) and Reference Example 5 (3) were multiplied on 24-well plates until confluency. Said cells were washed with two 1-ml portions of medium A [Dulbecco-'s modified Eagle's medium (DMEM), 20 mM 2-[4-(2-hydroxyethyl)-1-piperazinyl]ethanesulfonic acid (HEPES) (pH. 7.5), 0.2% BSA, 0.2 mM 3-isobutyl-1-methylxanthine (IBMX)] and then 400 μl of medium A was added to each well and incubation was carried out at 37° C. for 1 hour. To each well were added 50 μl of a hCS-15 or hCS-17 solution (each diluted to a concentration 10 times the final concentration with medium A) and 50 μl of a forskolin solution (final concentration: 10 μM), and incubation was carried out at 37° C. for 30 minutes. The cells were washed with two 1-ml portions of medium A and then 500 μl of medium A and 100 μL of 20% aqueous perchloric acid solution were added to each well, followed by standing at 4° C. for 20 minutes for cell lysis. […] The amount of cAMP contained in this extract was determined using an Amersham's kit (cAMP EIA system).

rat electroencephalogram = assay: Effect on the rat electroencephalogram (sleep-wakefulness); assay type: in vivo
Protocol: Using male Jcl:Wistar rats (b. wt. 300˜350 g, approx.) under pentobarbital anesthesia (50 mg/kg, i.p.), the head was immobilized in a rat brain stereotaxic apparatus and the skull was drilled for placement of a screw electrode for cortical derivation and a stainless steel bipolar electrode for hippocampal derivation (A:−2.6, L:2.5, H:3.5, Pellegrino and Cushman Brain Atlas). A bipolar stainless steel needle electrode for recording an electromyogram was also inserted into the muscle layer in the dorsocervical region. All the electrodes were connected to a socket on the cranium and fixed with a dental cement. For administration of the test drug solution into the paracele, a 27-G stainless steel guide cannula was inserted in such a manner that the coordinates of its tip would be A:−0.4, L:1.7, H:1.7, and was fixed together with the EEG electrodes using a dental cement. A stilet was inserted into the guide cannula to prevent plugging of the cannula bore by tissue and blood. After postoperative recovery, the animal was submitted to the experiment. The rat was acclimatized to the experimental environment for at least 1 hour and either hCS-17 dissolved in phosphate buffered saline (PBS) or PBS was administered into the paracele via a 30-G infusion cannula. The electroencephalogram was recorded for 4 hours following administration of the test drug. The dose volume was 5 μl and the dose was 0.1 or 1 nmol. Control animals were similarly dosed with PBS.
The sleep-wakefulness was monitored by visual reading of the polygram and evaluated by frequency analysis and power analysis and classified into the following categories.
During this time, electromyographic activity is high.
(2) SWS1 (Shallow-and-Slow Wave Sleep) and SWS2 (Deep-and-Slow Wave Sleep):
The rat assumes a sleeping posture and delta waves (spindle waves) or high-amplitude, slow-waves appear in the cerebral cortex and high-amplitude, slow-waves, appear in the hippocampal derivation. During this period, electromyographic activity is decreased (SWS1) or absent (SWS2).
(3) PS (Paradoxical Sleep):
Alpha waves (low-amplitude, fast waves) appear in the cerebral cortex and theta waves (rhythmic waves) in the hippocampal derivation. During this period, electromyographic activity is absent.
Using 5˜6 rats per group, hCS-17 and PBS were respectively injected into the same rat to evaluate the relative effect on wakefulness. Analysis for statistical significance was made by paired t-test.

T1 sequence (P30874 whole entry): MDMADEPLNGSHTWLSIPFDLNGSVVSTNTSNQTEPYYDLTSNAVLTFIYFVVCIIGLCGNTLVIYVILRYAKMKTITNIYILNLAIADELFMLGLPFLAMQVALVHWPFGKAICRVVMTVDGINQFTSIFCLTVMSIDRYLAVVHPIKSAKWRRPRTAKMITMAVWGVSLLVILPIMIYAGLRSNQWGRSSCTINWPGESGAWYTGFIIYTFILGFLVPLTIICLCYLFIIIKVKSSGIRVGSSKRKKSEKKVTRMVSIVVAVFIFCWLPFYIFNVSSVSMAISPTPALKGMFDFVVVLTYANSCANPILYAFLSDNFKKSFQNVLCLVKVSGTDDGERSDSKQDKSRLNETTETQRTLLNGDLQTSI

Row | SMILES | EC50 (human SSTR2) [nM] | PS (paradoxical sleep) occupancy time vs PBS (rat electroencephalogram; 0.1 nmol into the paracele) | SWS1 (shallow-and-slow wave sleep) occupancy time vs PBS (rat electroencephalogram; 0.1 nmol into the paracele) | SWS2 (deep-and-slow wave sleep) occupancy time vs PBS (rat electroencephalogram; 0.1 nmol into the paracele) | animals showing flattening of the EEG patterns (rat electroencephalogram; 0.1 nmol into the paracele) | wakefulness time (percent occupancy of 4 hour EEG recording) vs PBS (rat electroencephalogram; 0.1 nmol into the paracele) | PS (paradoxical sleep) occupancy time vs PBS (rat electroencephalogram; 1 nmol into the paracele) | SWS1 (shallow-and-slow wave sleep) occupancy time vs PBS (rat electroencephalogram; 1 nmol into the paracele) | SWS2 (deep-and-slow wave sleep) occupancy time vs PBS (rat electroencephalogram; 1 nmol into the paracele) | animals showing flattening of the EEG patterns (rat electroencephalogram; 1 nmol into the paracele) | duration of flattening of cortical and hippocampal EEG patterns (rat electroencephalogram; immediately after administration into the paracele)
1 | CSCC[C@H](N)C(=O)N1CCC[C@H]1C(=O)N[C@H]1CSSC[C@@H](C(=O)N[C@@H](CCCCN)C(=O)O)NC(=O)[C@H](CO)NC(=O)[C@H](CO)NC(=O)[C@H](Cc2ccccc2)NC(=O)[C@H]([C@@H](C)O)NC(=O)[C@H](CCCCN)NC(=O)[C@H](Cc2c[nH]c3ccccc23)NC(=O)[C@H](Cc2ccccc2)NC(=O)[C@H](Cc2ccccc2)NC(=O)[C@H](CC(N)=O)NC(=O)[C@H](CCCNC(=N)N)NC1=O [hCS-15] (H-MPCRNFFWKTFSSCK-OH; disulfide 3-14; N-terminus and C-terminus assumed) | 7 |  |  |  |  |  |  |  |  |  | 
2 | CSCC[C@H](NC(=O)[C@H](CCCNC(=N)N)NC(=O)[C@@H](N)CC(=O)O)C(=O)N1CCC[C@H]1C(=O)N[C@H]1CSSC[C@@H](C(=O)N[C@@H](CCCCN)C(=O)O)NC(=O)[C@H](CO)NC(=O)[C@H](CO)NC(=O)[C@H](Cc2ccccc2)NC(=O)[C@H]([C@@H](C)O)NC(=O)[C@H](CCCCN)NC(=O)[C@H](Cc2c[nH]c3ccccc23)NC(=O)[C@H](Cc2ccccc2)NC(=O)[C@H](Cc2ccccc2)NC(=O)[C@H](CC(N)=O)NC(=O)[C@H](CCCNC(=N)N)NC1=O [hCS-17] |  | significantly decreased | tendency toward decrease | toward increase | 2 out of 5 | not different from the PBS control group | decrease | significant decrease | increase | 4 out of 6 | 3˜5 minutes
